Measurements: PMC6739329 (Scientific Reports, 2019)
Read-outs that look alike come from different tables or passages of the source. Blank lines part the entries; values can stand above or below the compound they belong to.

Tests used:
PKM2 [1] = biological target: T1, PKM2 (Homo sapiens, UniProt P14618); assay: Thermal stability assay of PKM2 with salicylates; type: binding; conditions: 2 µM PKM2, Tm 42 °C without ligand
T1 construct: each gene was amplified and cloned into pET28a vector for recombinant protein production; 6xHis; made in house; host or cells: Escherichia coli BL21

[2] = biological target: maltose-binding protein (MBP) (Escherichia coli, UniProt P0AEX9); assay: Thermal stability assay of maltose-binding protein (negative control protein); conditions: 10 mM SA
PKM2 [3] = biological target: T1, PKM2; assay: In vitro PKM activity assay (LDH-coupled, NADH to NAD+), PKM2; type: biochemical; conditions: 1.3 ng/µL PKM2
Experimental: PK activity was measured using a method described previously with minor modifications. In brief, PK activity was measured by monitoring pyruvate-dependent conversion of NADH to NAD^+ by lactate dehydrogenase (LDH). Increasing concentrations of salicylates were incubated with PKM2 (final concentration 1.3 ng/uL) for 30 min at RT in the incubation buffer (50 mM Tris-HCl, pH 7.5, 100 mM KCl, 5 mM MgCl2) before mixing with 1/10 volume of 10X pyruvate kinase reaction buffer (500 mM Tris-HCl, pH 7.5, 500 mM KCl, 50 mM MgCl2, 5 mM PEP (Sigma-Aldrich, P0564), 6 mM ADP (Sigma-Aldrich, A5285), 80 units LDH (Sigma-Aldrich, L1254), 10 mM DTT, and 1.80 mM NADH (SigmaAldrich, N8129)).

PKM1 = PKM1 (Homo sapiens, UniProt P14618); assay: In vitro PKM activity assay, PKM1; type: biochemical; conditions: SA 0.4 mM
HEK293 cells [4] = assay: In vivo glycolytic activity assay (extracellular lactate); type: cell-based, human; conditions: for Reduction of extracellular lactate levels: 15 hrs
Experimental: Data are mean ± SD (n = 3).
Glycolytic activity of HEK293 cells in the absence or presence of different concentrations of salicylates was measured by monitoring the level of lactate produced[33],[34]. HEK293 cells were seeded in 96-well tissue culture plates at a density of 10^4 cells/well in 120 µL of complete medium (DMEM medium supplemented with 10% heat-inactivated FBS). Plates were incubated overnight in a CO2 incubator at 37 °C. […] Following a 15 hr incubation in a CO2 incubator at 37 °C, cellular supernatants were collected and lactate levels were measured by colorimetry according to the manufacturer’s instructions for a glycolysis cell-based assay kit (Cayman, Ann Arbor, Michigan).

HEK293 cells [5] = assay: Morphology of HEK293 cells treated 15 h with salicylates; type: cell-based, human; conditions: 15 h treatment
Source text: Data are mean ± SD (n = 3). […] Scale bar = 20 μm.
changes in HEK293 cells. Scale bar = 50 μm.
changes of HEK293 cells. Scale bar = 50 μm.

[6] = resulting from the required aspirin dosage; cited from earlier work
ENO1 [7] = biological target: T2, ENO1 (Homo sapiens, UniProt P06733); assay: Thermal stability assay of ENO1 with salicylates; conditions: 2 µM ENO1, Tm 44 °C in the absence of SA or amoB1
Experimental: Data are mean ± SD (n = 3). Experiments were repeated three times with similar results.
Thermal stability assay was performed with ENO1 and PKM2 as previously described with minor modifications[7].
A thermal stability assay was used to examine the binding activities of ENO1 and PMK2 with salicylates as previously described with minor modifications 6. Purified ENO1 and
final concentration of each protein was 2 μM in 16 μl of reaction buffer (0.1 M HEPES, pH 7.5, 150 mM NaCl, and 5 mM BME). Four μl of a 1:200 dilution of stock SYPRO orange dye (Invitrogen) in reaction buffer was added to achieve a total reaction volume of 20 μl. Thermal melt curves were obtained by heating the protein from 20–95°C and monitoring fluorescence at 590 nm with a CFX96 Real-Time PCR Detection System (Bio-Rad). All curves were obtained in triplicate and averaged.

ENO1 [8] = biological target: T2, ENO1; assay: In vitro ENO1 activity assay (2-PGA to PEP, absorbance at 240 nm)
Experimental: Background signals induced by reaction solutions containing salicylates and 2-PGA, but without ENO1, were subtracted to calculate ΔOD240. […] Percent inhibition was calculated by monitoring the ΔOD240 at 5 min with or without salicylates. Data are mean ± SD (n = 3). Experiments were repeated three times with similar results.
The catalytic activity of ENO1 was tested as previously described with minor modifications[80]. Briefly, increasing concentrations of salicylates were incubated with 0.1 µM ENO1 for 30 min at RT in reaction buffer (10 mM KCl, 5 mM MgSO4, 100 mM triethanolamine pH 7.4).

PKM2 [9] = biological target: T1, PKM2; assay: Tryptophan (Trp) intrinsic fluorescence assay of PKM2; type: binding; conditions: 1 µM PKM2, 30 min at RT; read-out: Kd (quenching of PKM2 intrinsic fluorescence)
ENO1 [10] = biological target: T2, ENO1; conditions: read-out: Kd (quenching of ENO1 intrinsic fluorescence); 1 µM ENO1, 30 min at RT
Experimental: For the Trp intrinsic fluorescence assay, different concentrations of salicylates were incubated with 1 µM ENO1 for 30 min at RT, then Trp emission fluorescence was obtained (excitation/emission = 295 nm/350 nm). […] Data are mean ± SD (n = 3). Experiments were repeated three times with similar results.
Binding of salicylates to ENO1 and PKM2 was assessed using a Trp intrinsic fluorescence assay as previously described[79].
A Trp intrinsic fluorescence assay was used to examine the binding of salicylates to ENO1
The final concentration of each protein was 1 μM in phosphate-buffered saline (PBS) buffer. The mixtures were subjected to excitation wavelength of 295 nm and the Trp emission fluorescence was recorded at 350 nm using a LS55 fluorescence spectrometer (Perkin Elmer). All data were obtained in triplicate and averaged.

T2 sequence (P06733 whole entry): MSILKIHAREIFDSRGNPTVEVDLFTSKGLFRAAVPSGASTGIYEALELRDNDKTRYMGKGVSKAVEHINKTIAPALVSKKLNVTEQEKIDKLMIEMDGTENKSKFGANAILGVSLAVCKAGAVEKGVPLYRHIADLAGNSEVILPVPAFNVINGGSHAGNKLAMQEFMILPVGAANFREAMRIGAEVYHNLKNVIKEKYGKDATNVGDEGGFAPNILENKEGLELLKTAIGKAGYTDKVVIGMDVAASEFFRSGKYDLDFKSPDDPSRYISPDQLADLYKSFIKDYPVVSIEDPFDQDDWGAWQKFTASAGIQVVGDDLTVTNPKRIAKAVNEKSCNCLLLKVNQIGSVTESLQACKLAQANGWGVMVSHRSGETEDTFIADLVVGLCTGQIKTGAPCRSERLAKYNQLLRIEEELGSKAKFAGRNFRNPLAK
T1 sequence (P14618 whole entry): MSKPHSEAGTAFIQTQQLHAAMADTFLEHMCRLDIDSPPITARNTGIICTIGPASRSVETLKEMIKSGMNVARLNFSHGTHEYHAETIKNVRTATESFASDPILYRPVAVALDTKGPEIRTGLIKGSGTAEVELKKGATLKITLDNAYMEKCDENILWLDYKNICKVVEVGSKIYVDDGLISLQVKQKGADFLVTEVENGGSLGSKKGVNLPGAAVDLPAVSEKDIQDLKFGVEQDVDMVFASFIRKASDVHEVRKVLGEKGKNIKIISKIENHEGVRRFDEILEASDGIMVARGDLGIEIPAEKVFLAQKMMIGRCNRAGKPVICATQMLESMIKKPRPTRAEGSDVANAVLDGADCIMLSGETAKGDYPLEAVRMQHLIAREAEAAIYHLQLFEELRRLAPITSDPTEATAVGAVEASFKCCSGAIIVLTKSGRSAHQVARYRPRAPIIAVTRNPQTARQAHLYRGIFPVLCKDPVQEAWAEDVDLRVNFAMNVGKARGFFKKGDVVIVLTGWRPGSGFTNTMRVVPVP
PKM1, sequence (P14618 1-531 isoform P14618-2, species assumed): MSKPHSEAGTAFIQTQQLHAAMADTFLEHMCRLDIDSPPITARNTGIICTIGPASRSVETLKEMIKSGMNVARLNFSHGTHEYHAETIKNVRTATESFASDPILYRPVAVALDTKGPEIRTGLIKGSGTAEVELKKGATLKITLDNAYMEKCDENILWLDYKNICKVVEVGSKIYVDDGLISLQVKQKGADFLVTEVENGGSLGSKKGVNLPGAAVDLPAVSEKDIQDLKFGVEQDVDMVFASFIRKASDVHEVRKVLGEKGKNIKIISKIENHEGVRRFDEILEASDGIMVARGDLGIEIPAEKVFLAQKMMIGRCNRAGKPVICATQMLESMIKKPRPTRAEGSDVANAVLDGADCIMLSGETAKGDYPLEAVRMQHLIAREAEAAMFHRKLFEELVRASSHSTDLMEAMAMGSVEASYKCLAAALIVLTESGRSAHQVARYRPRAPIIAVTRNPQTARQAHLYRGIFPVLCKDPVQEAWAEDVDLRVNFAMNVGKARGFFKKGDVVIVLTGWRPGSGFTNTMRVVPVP

SMILES: O=C(O)c1ccccc1O [SA, Salicylic acid]
Tm of PKM2 (PKM2 [1]; 5 mM SA): 41 °C
Tm of MBP [2]: not altered
inhibition at 400 µM (PKM2 [3]; 400 µM SA): ≤ 40%
Effect on PKM1 enzymatic activity (PKM1): did not alter
Reduction of extracellular lactate levels (HEK293 cells [4]; 0.5 mM SA): 12%
Reduction of extracellular lactate levels (HEK293 cells [4]; 1.0 mM SA): 27%
Concentration at which cells were substantially smaller and more spherical (HEK293 cells [5]): ≥ 20 mM
Concentration with no detectable morphological deformation of cells (HEK293 cells [5]; microscope): up to 10 mM
SA in the plasma for analgesic/antipyretic effects [6]: ~ 0.5 mM
Tm of ENO1 (ENO1 [7]; 5 mM SA): 43.0 °C
IC50 (ENO1 [8]): 1300 µM

Tm of PKM2 (PKM2 [1]; 5 µM amoB1): 42.4 °C
Kd (PKM2 [9]): 3.2 µM
IC50 (PKM2 [3]): 15.2 µM
Concentration at which cell deformation was observed (HEK293 cells [5]): above 2 µM
Concentration with no visible morphological changes of cells (HEK293 cells [5]): Up to 2 µM
Tm of ENO1 (ENO1 [7]; 12.5 µM amoB1): 45.1 °C
Kd (ENO1 [10]): 26.9 µM
Potency of ENO1 inhibition relative to SA (times stronger than SA) (ENO1 [8]; ratio of IC50 values): ~ 84 times
IC50 (ENO1 [8]; read-out: IC50 for ENO1 enzymatic activity, 0.1 µM ENO1, […] 2-PGA, ΔOD240 at 5 min): 15.4 µM
SMILES: COc1cc(CCc2ccccc2)c(C(=O)O)c(O)c1C/C=C(\C)CCC=C(C)C [amoB1, amorfrutin B1]
Extracellular lactate levels (HEK293 cells [4]; 20–50 µM amoB1, 15 hr): drastically reduced
Extracellular lactate levels (HEK293 cells [4]; amoB1 up to 10 µM, 15 hr): not substantially altered
